Experimental data reported in patent publication US20240279233A1, “MACROCYCLIC TAK1 INHIBITORS” (Aqilion AB, priority 2021, published 2024).
Where two headings read alike, the source gives them in different places.

Target: human recombinant TAK1-TAB1 Kinase (TAK1 (1-303) and TAB1 (437-end)) (Homo sapiens (Human), UniProt O43318)
Assay: TAK1 biochemical ADP-Glo kinase assay
Conditions: MBP substrate
Protocol: The usefulness of the example compounds of the invention as TAK1 inhibitors was evaluated in a biochemical ADP-Glo kinase assay. Assay kits from Promega Corporation V4089 were used according to manufacturer's instructions and adapted as outlined here. ADP-Glo Kinase Assay kit contains ADP-Glo Reagent, Kinase Detection Reagent, kinase detection buffer, ATP, and ADP. The Kinase Enzyme Systems include human recombinant TAK1-TAB1 Kinase (TAK1 (1-303) and TAB1 (437-end)), Native Swine Myelin Basic Protein (MBP) substrate, 5×kinase reaction buffer, and DTT.
Test compounds were prepared in 1:5 serial dilutions at 8 concentrations in DMSO from 10 mM stock solutions. An additional 20-fold dilution in 1× kinase reaction buffer (see below) was performed, yielding a final dilution series in kinase buffer with 5% DMSO (final concentration in assay from 20 μM to 0.26 nM, 1% DMSO). As controls, Takinib was prepared as positive control (3 μM final in assay), and DMSO without inhibitor served as negative control, at a final assay concentration of DMSO of 1%.
One μl of compound solution in 5% DMSO was added to each well in a 384 well microtiter plate (OptiPlate #6007290). Two μl TAK1-TAB1 (7.5 ng/μl) in lxkinase reaction buffer ([…] Tris base pH 7.5, 20 mM MgCl2, 50 μM DTT, 0.1 mg/ml BSA) was added and pre-incubated 10 min before adding 2 μl of a mixture of MBP substrate and ATP (0.25 μg/μL MBP/25 μM ATP or 0.25 μg/μL MBP/2.5 mM ATP) in 1× kinase reaction buffer (as above). The plate was subsequently incubated at room temperature for 1 hour. Then 5 μl ADP-Glo™ reagent from ADP-Glo™ kit (as above) was added and incubated for 40 min to stop the reaction and consume remaining ATP. Ten μl kinase detection substrate (dissolved in kinase detection buffer, both from ADP-Glo™ kit as above) was then added to convert ADP to ATP and detect ATP with luciferase/luciferin. The plate was incubated for 30 minutes at room temperature in dark before reading luminescence on an Envision (PerkinElmer) reader.
IC50 values of compounds of the invention were determined by the non-linear regression analysis of dose response curves.

[1] = 1 mM ATP, read-out: TAK1 Mean IC50 (nM) @ 1 mM ATP
[2] = 10 μM ATP, read-out: TAK1 Mean IC50 (nM) @ 10 μM ATP

Sequence of human recombinant TAK1-TAB1 Kinase (TAK1 (1-303) and TAB1 (437-end)) (O43318 other isoform, or with tags, fused parts or gaps): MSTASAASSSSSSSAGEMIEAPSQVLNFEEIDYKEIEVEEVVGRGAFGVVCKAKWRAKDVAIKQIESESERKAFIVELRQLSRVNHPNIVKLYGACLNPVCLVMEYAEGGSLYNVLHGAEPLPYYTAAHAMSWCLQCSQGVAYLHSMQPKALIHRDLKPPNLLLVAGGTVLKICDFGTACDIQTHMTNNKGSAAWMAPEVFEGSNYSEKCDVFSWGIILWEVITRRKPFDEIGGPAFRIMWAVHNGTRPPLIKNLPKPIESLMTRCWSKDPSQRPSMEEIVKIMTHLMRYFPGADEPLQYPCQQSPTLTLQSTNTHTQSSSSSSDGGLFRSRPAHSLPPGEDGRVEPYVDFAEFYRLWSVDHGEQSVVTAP

CC1CCCCNC(=O)c2cccc(c2)C(=O)/N=C2\Nc3cccc(N4CCN(C5COC5)C4=O)c3N21 (single isomer, unassigned) [Example 143, (E)-11-methyl-1^7-(3-(oxetan-3-yl)-2-oxoimidazolidin-1-yl)-1^2,1^3-dihydro-1^1H-2,6-diaza-1(2,1)-benzo[d]imidazola-4(1,3)-benzenacycloundecaphane-3,5-dione]
IC50 [1]: 14 nM

C[C@H]1CCCCNC(=O)c2cccc(c2)C(=O)/N=C2\Nc3cccc(C(=O)N4C[C@@H]5C[C@H]4CO5)c3N21 [Example 111, (S,E)-1^7-((1S,4S)-2-oxa-5-azabicyclo[2.2.1]heptane-5-carbonyl)-11-methyl-1^2,1^3-dihydro-1^1H-2,6-diaza-1(2,1)-benzo[d]imidazola-4(1,3)-benzenacycloundecaphane-3,5-dione]
IC50 [1]: 24 nM

CC1CCCCNC(=O)c2cccc(c2)C(=O)/N=C2\Nc3cccc(-c4ncn(C(F)F)n4)c3N21 (single isomer, unassigned) [Example 138, (E)-1^7-(1-(difluoromethyl)-1H-1,2,4-triazol-3-yl)-11-methyl-1^2,1^3-dihydro-1^1H-2,6-diaza-1(2,1)-benzo[d]imidazola-4(1,3)-benzenacycloundecaphane-3,5-dione]
IC50 [2]: 8 nM

C[C@H]1CCCCNC(=O)c2cccc(c2)C(=O)/N=C2\Nc3cccc(C(=O)N4CCC5(COC5)C4)c3N21 [Example 115, (S,E)-11-methyl-1^7-(2-oxa-6-azaspiro[3.4]octane-6-carbonyl)-1^2,1^3-dihydro-1^1H-2,6-diaza-1(2,1)-benzo[d]imidazola-4(1,3)-benzenacycloundecaphane-3,5-dione]
IC50 [1]: 11 nM

C[C@H]1CCCCNC(=O)c2cccc(c2)C(=O)/N=C2\Nc3cccc(C(=O)N4C[C@H]5C[C@@H]4CO5)c3N21 [Example 112, (S,E)-1^7-((1R,4R)-2-oxa-5-azabicyclo[2.2.1]heptane-5-carbonyl)-11-methyl-1^2,1^3-dihydro-1^1H-2,6-diaza-1(2,1)-benzo[d]imidazola-4(1,3)-benzenacycloundecaphane-3,5-dione]
IC50 [1]: 8 nM

C[C@H]1CCCCNC(=O)c2cccc(c2)C(=O)/N=C2\Nc3cccc(N4CCC(F)C4=O)c3N21 (stereo partly drawn) [Example 146, (11S,E)-1^7-(3-fluoro-2-oxopyrrolidin-1-yl)-11-methyl-1^2,1^3-dihydro-1^1H-2,6-diaza-1(2,1)-benzo[d]imidazola-4(1,3)-benzenacycloundecaphane-3,5-dione]
IC50 [2]: 5 nM
IC50 [1]: 9 nM

CC1CCCCNC(=O)c2cccc(c2)C(=O)/N=C2\Nc3cccc(N4CCN(C5CC5)C4=O)c3N21 (single isomer, unassigned) [Example 142, (E)-1^7-(3-cyclopropyl-2-oxoimidazolidin-1-yl)-11-methyl-1^2,1^3-dihydro-1H-2,6-diaza-1(2,1)-benzo[d]imidazola-4(1,3)-benzenacycloundecaphane-3,5-dione]
IC50 [2]: 7 nM
IC50 [1]: 8 nM

C[C@H]1CCCCNC(=O)c2cccc(c2)C(=O)/N=C2\Nc3ccnc(N4CCCC4=O)c3N21 [Example 119, (S,E)-11-methyl-1^4-(2-oxopyrrolidin-1-yl)-1^2,1^3-dihydro-1^1H-2,6-diaza-1(2,3)-imidazo[4,5-c]pyridina-4(1,3)-benzenacycloundecaphane-3,5-dione]
IC50 [2]: 7 nM
IC50 [1]: 22 nM

C[C@H]1CCCCNC(=O)c2cccc(c2)C(=O)NC2Nc3cccc(N4CCCC4=O)c3N21 (stereo partly drawn) [Example 113, (S,E)-11-methyl-1^7-(2-oxopyrrolidin-1-yl)-1^2,1^3-dihydro-1^1H-2,6-diaza-1(2,1)-benzo[d]imidazola-4(1,3)-benzenacycloundecaphane-3,5-dione]
IC50 [2]: 5 nM
IC50 [1]: 5 nM

CC1CCCCNC(=O)c2cccc(c2)C(=O)/N=C2\Nc3cccc(-c4nccn4C)c3N21 (single isomer, unassigned) [Example 135, (E)-11-methyl-1^7-(1-methyl-1H-imidazol-2-yl)-1^2,1^3-dihydro-1^1H-2,6-diaza-1(2,1)-benzo[d]imidazola-4(1,3)-benzenacycloundecaphane-3,5-dione]
IC50 [2]: 6 nM

C[C@@H]1CCCCNC(=O)c2cccc(c2)C(=O)Nc2nc3cccc(-c4ncn(C)n4)c3n21 [Example 83, (R)-11-methyl-1^7-(1-methyl-1H-1,2,4-triazol-3-yl)-1^1H-2,6-diaza-1(2,1)-benzo[d]imidazola-4(1,3)-benzenacycloundecaphane-3,5-dione]
IC50 [2]: 6 nM

CC1CCCCNC(=O)c2cccc(c2)C(=O)/N=C2\Nc3cccc(C4CCCNC4=O)c3N21 (single isomer, unassigned) [Example 58, (E)-11-methyl-1^7-(2-oxopiperidin-3-yl)-1^2,1^3-dihydro-1^1H-2,6-diaza-1(2,1)-benzo[d]imidazola-4(1,3)-benzenacycloundecaphane-3,5-dione]
IC50 [2]: 4 nM

CC1CCCCNC(=O)c2cccc(c2)C(=O)/N=C2\Nc3cccc(-c4ncnn4C(F)F)c3N21 (single isomer, unassigned) [Example 139, (E)-1^7-(1-(difluoromethyl)-1H-1,2,4-triazol-5-yl)-11-methyl-1^2,1^3-dihydro-1^1H-2,6-diaza-1(2,1)-benzo[d]imidazola-4(1,3)-benzenacycloundecaphane-3,5-dione]
IC50 [1]: 17 nM

CNC(=O)c1cccc2nc3n(c12)C(C)CCCCNC(=O)c1cccc(c1)C(=O)N3 (stereo not shown) [Example 34, (E)-N,11-dimethyl-3,5-dioxo-1^2,1^3-dihydro-1^1H-2,6-diaza-1(2,1)-benzo[d]imidazola-4(1,3)-benzenacycloundecaphane-1^7-carboxamide]
IC50 [2]: 2 nM

CC1CCCCNC(=O)c2cccc(c2)C(=O)/N=C2\Nc3cccc(C(=O)N(C)C4CC(O)C4)c3N21 (stereo not shown) [Example 41, (E)-N-(3-hydroxycyclobutyl)-N,11-dimethyl-3,5-dioxo-1^2,1^3-dihydro-1^1H-2,6-diaza-1(2,1)-benzo[d]imidazola-4(1,3)-benzenacycloundecaphane-1^7-carboxamide]
IC50 [2]: 3 nM

C[C@H]1CCCCNC(=O)c2cccc(c2)C(=O)/N=C2\Nc3cccc(-c4cn(C5COC5)nn4)c3N21 [Example 129, (S,E)-11-methyl-1^7-(1-(oxetan-3-yl)-1H-1,2,3-triazol-4-yl)-1^2,1^3-dihydro-1^1H-2,6-diaza-1(2,1)-benzo[d]imidazola-4(1,3)-benzenacycloundecaphane-3,5-dione]
IC50 [2]: 6 nM
IC50 [1]: 6 nM

C[C@H]1CCCCNC(=O)c2cccc(c2)C(=O)/N=C2\Nc3cccc(C(=O)N4CC5(C4)CC(F)(F)CO5)c3N21 [Example 117, (S,E)-1^7-(7,7-difluoro-5-oxa-2-azaspiro[3.4]octane-2-carbonyl)-11-methyl-1^2,1^3-dihydro-1^1H-2,6-diaza-1(2,1)-benzo[d]imidazola-4(1,3)-benzenacycloundecaphane-3,5-dione]
IC50 [1]: 4 nM

CN(C)C(=O)c1cccc2c1N1/C(=N/C(=O)c3cccc(c3)C(=O)NCCCCC13CC3)N2 [Example 131, (E)-N,N-dimethyl-3′,5′-dioxospiro[cyclopropane-1,11′-2,6-diaza-1(2,1)-benzo[d]imidazola-4(1,3)-benzenacycloundecaphane]-7′-carboxamide]
IC50 [2]: 5 nM
IC50 [1]: 13 nM

C[C@H]1CCCCNC(=O)c2cccc(c2)C(=O)/N=C2\Nc3cccc(C(=O)N4CC5(CCCO5)C4)c3N21 [Example 116, (S,E)-11-methyl-1^7-(5-oxa-2-azaspiro[3.4]octane-2-carbonyl)-1^2,1^3-dihydro-1^1H-2,6-diaza-1(2,1)-benzo[d]imidazola-4(1,3)-benzenacycloundecaphane-3,5-dione]
IC50 [1]: 3 nM

CC1CCCCNC(=O)c2cccc(c2)C(=O)Nc2nc3cccc(-c4ccc[nH]c4=O)c3n21 (single isomer, unassigned) [Example 35, (E)-11-methyl-1^7-(2-oxo-1,2-dihydropyridin-3-yl)-1^2,1^3-dihydro-1^1H-2,6-diaza-1(2,1)-benzo[d]imidazola-4(1,3)-benzenacycloundecaphane-3,5-dione]
IC50 [2]: 5 nM

C[C@H]1CCCCNC(=O)c2cccc(c2)C(=O)/N=C2\Nc3ccnc(N4CCN(C5CC5)C4=O)c3N21 [Example 122, (S,E)-1^4-(3-cyclopropyl-2-oxoimidazolidin-1-yl)-11-methyl-1^2,1^3-dihydro-1^1H-2,6-diaza-1(2,3)-imidazo[4,5-c]pyridina-4(1,3)-benzenacycloundecaphane-3,5-dione]
IC50 [2]: 9 nM
IC50 [1]: 57 nM
